Patent EP0430045B1, “Ascorbic acid tocopheryl phosphate diesters for inhibition of Maillard's reaction” (Senju Pharmaceutical Co., Ltd., priority 1989, dated 1991)

Biological target: T1, bovine serum albumine (Bos taurus, UniProt P02769)
T1 construct: purchased Sigma A-8022
Assay: Inhibition of furosine formation (non-enzymatic glycosylation of BSA by glucose, Maillard's reaction), furosine determined by HPLC
Assay type: biochemical
Conditions: inhibition rate of furosine formation; 5 mM test compound, 20 mg/ml BSA, 50 mM glucose, 50 mM phosphate buffer pH 7.3, 4 weeks at 37 °C
Method: Sample solutions as shown below were aseptically prepared from bovine serum albumine (No. A-8022, Sigma)(hereinafter referred to as BSA), 50 mM phosphate buffer solution (PH 7.3) and the test compound and aminoguanidine.
Normal sample; 20 mg/ml BSA in buffer solution Control sample: 20 mg/ml BSA and 50 mM glucose in buffer solution Test sample; 20 mg/ml BSA, 50 mM glucose and 5 mM test compound in buffer solution The sample solutions were kept for 4 weeks at 37 °C, and the amount of furosine which was formed by non-enzymatic glycosylation was determined by HPLC according to the method of Schleicher et al. [J. Clin. Biochem., 19:81-87 (1981).] Thus, the sample solutions after reaction were dialyzed, and aliquots of 1 ml were lyophylized and then hydrolyzed by the addition of 1 ml of 6 N hydrochloric acid followed by heating at 100 °C for 20 hours. After removal of hydrochloric acid by evaporation, 1 ml of water was added to each sample, and the samples were subjected to filtration using a filter with the pore size of 0.45 »m. The filtrate was used as the sample for HPLC. […] The absorbance peak whose ratio of peak area at […] was 3.9/1 was regarded as the peak corresponding to furosine.
Upon the area of the peak of furosine of each sample, the inhibition rate of furosine formation by the test compound was calculated as follows. […]

T1 sequence (P02769 25-607): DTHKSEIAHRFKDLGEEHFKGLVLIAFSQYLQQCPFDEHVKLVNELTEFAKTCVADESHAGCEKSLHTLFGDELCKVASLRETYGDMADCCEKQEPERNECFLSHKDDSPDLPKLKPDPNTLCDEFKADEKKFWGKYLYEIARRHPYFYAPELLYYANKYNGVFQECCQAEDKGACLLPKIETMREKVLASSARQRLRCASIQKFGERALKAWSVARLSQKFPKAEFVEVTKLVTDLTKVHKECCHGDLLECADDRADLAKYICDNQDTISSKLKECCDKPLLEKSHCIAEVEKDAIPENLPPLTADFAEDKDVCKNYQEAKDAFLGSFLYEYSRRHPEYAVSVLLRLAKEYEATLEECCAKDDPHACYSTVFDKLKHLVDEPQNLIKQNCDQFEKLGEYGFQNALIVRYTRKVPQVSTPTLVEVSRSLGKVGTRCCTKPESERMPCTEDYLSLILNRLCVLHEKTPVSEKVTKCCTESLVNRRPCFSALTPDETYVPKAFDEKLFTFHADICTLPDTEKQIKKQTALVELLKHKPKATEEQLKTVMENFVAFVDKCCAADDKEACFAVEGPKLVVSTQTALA

N=C(N)NN [Aminoguanidine]
inhibition at 5000 µM: 7.5%
